This note sets out measurements from PMC6677016, “Biochemical and structural explorations of α-hydroxyacid oxidases reveal a four-electron oxidative decarboxylation reaction” (Acta Crystallographica. Section D, Structural Biology, 2019).

Data set [1] concerns the target T1, p-Hydroxymandelate oxidase (Hmo) (Amycolatopsis orientalis, UniProt O52792).
T1 construct: N-terminally His6-tagged protein
In words: crystal structure ([…] Å). In kind it is binding.

In data set [2] the target is T1, p-Hydroxymandelate oxidase (Hmo). The data set is described as follows: crystal structure ([…] Å). In kind it is binding. The source holds these as a separate data set.
Data set [3] shares this target. In words: crystal structure ([…] Å) and ITC. Type of data set: binding.
Data set [4] deals with T2, p-Hydroxymandelate oxidase (Hmo) Y128F mutant (Amycolatopsis orientalis, UniProt O52792, Y128F).
T2 construct: N-terminally His6-tagged protein
T2 sequence (O52792 1-357 Y128F): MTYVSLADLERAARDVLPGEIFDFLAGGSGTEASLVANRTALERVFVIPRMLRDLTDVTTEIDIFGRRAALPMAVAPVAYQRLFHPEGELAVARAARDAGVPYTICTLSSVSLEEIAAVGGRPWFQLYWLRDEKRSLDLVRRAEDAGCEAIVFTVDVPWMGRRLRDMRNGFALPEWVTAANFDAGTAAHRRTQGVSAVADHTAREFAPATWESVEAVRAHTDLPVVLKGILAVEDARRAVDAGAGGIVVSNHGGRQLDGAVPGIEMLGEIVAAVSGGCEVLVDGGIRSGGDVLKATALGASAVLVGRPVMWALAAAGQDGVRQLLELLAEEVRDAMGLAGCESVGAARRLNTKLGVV
In words: crystal structure ([…] Å) and ITC. Type of data set: binding.

Data set [5] has as its target T2, p-Hydroxymandelate oxidase (Hmo) Y128F mutant. The data set is described as follows: crystal structure ([…] Å). In kind it is binding.
For data set [6] the target is unchanged. The data set is described as follows: crystal structure ([…] Å). Type of data set: binding. The source holds these as a separate data set.
In data set [7] the target is T1, p-Hydroxymandelate oxidase (Hmo). In words: crystal structure ([…] Å). In kind it is binding. This is another data set of the same source.
In data set [8] the target is T2, p-Hydroxymandelate oxidase (Hmo) Y128F mutant. In words: crystal structure ([…] Å). Type of data set: binding. The source holds these as a separate data set.
Data set [9] concerns the molecule itself. In words: crystal structure; hanging-drop vapor diffusion at 20°C, 35% Tascimate, 0.1 M bis-Tris propane pH 7.0; space group I422, one chain in the asymmetric unit, dimer by a crystallographic twofold axis.
Substrate in data set [10]: O=C(O)[C@@H](O)c1ccccc1
The data set is described as follows: purified protein. Particulars: FMN anchored by Tyr128, Arg163, His252 and Arg255; α-H points towards N5 of the isoalloxazine ring.

Turning to `O=C(O)[C@@H](O)c1ccc(O)cc1` [4HSMA, 4-hydroxy-(S)-mandelate], in data set [1], the “crystal structure (1.32 Å)” value is listed as “complex with 4-hydroxy-(S)-mandelate, 5zzq”.

For `O=C(O)c1ccccc1` [BA, benzoate], the “crystal structure (1.40 Å)” value in data set [2] was “complex with benzoate, 5zzs”.

Take `O=C(O)C(=O)c1ccccc1` [BF, benzoylformate]: the values for the equilibrium dissociation constant (Kd) in [3] and in [4] were 1900 µM and 1400 µM, respectively.

Turning to `O=C(O)C(=O)Cc1ccccc1` [PPY, phenylpyruvate], the “crystal structure (1.45 Å)” value in data set [5] is given as “The Y128F mutant liganded with phenylpyruvate, an oxidized product, when soaked with phenyllactate”.

As to `O=C(O)[C@H](O)c1ccccc1` [RMA, (R)-mandelate], the “crystal structure (1.50 Å)” value in data set [6] was “When the Y128F mutant is bound by (R)-mandelate, the structural conformation is similar to that of (S)-mandelate”.

As to `C[C@H](C(=O)O)c1ccccc1` [SPPA, (S)-2-phenylpropionate], the “crystal structure (1.60 Å)” value in data set [7] is on record as “(S)-2-phenylpropionate (inhibitor) all adopt a ‘V’ conformation with the carboxyl group orthogonal to the plane of the phenyl ring”. For the same molecule, the “crystal structure (1.65 Å)” value in [8] was “complex with 2-phenylpropanoate, 6a0d”.

B1: p-Hydroxymandelate oxidase (Hmo) from Amycolatopsis orientalis, wild type (enzyme)
chain: MTYVSLADLERAARDVLPGEIFDFLAGGSGTEASLVANRTALERVFVIPRMLRDLTDVTTEIDIFGRRAALPMAVAPVAYQRLFHPEGELAVARAARDAGVPYTICTLSSVSLEEIAAVGGRPWFQLYWLRDEKRSLDLVRRAEDAGCEAIVFTVDVPWMGRRLRDMRNGFALPEWVTAANFDAGTAAHRRTQGVSAVADHTAREFAPATWESVEAVRAHTDLPVVLKGILAVEDARRAVDAGAGGIVVSNHGGRQLDGAVPGIEMLGEIVAAVSGGCEVLVDGGIRSGGDVLKATALGASAVLVGRPVMWALAAAGQDGVRQLLELLAEEVRDAMGLAGCESVGAARRLNTKLGVV
notes: p-hydroxymandelate oxidase (Hmo, orf22), amplified from Amycolatopsis orientalis genomic DNA and subcloned into pET-28a(+) (NdeI/XhoI); one chain in the asymmetric unit, the dimer made by a crystallographic twofold axis; also called (S)-p-hydroxymandelate oxidase; WT Hmo; source: E. coli BL21(DE3), purified (Ni-NTA, size-exclusion chromatography)
Regarding B1, the stoichiometry N (in general, a count of units in the complex or per binding partner) in data set [9] came out at 2. In addition, in data set [10], the Michaelis-Menten constant (Km) (usually the concentration of substrate that gives half-maximal velocity) was 160 µM.

B2: p-Hydroxymandelate oxidase (Hmo) Y128F mutant (enzyme, Amycolatopsis orientalis)
chain: MTYVSLADLERAARDVLPGEIFDFLAGGSGTEASLVANRTALERVFVIPRMLRDLTDVTTEIDIFGRRAALPMAVAPVAYQRLFHPEGELAVARAARDAGVPYTICTLSSVSLEEIAAVGGRPWFQLFWLRDEKRSLDLVRRAEDAGCEAIVFTVDVPWMGRRLRDMRNGFALPEWVTAANFDAGTAAHRRTQGVSAVADHTAREFAPATWESVEAVRAHTDLPVVLKGILAVEDARRAVDAGAGGIVVSNHGGRQLDGAVPGIEMLGEIVAAVSGGCEVLVDGGIRSGGDVLKATALGASAVLVGRPVMWALAAAGQDGVRQLLELLAEEVRDAMGLAGCESVGAARRLNTKLGVV
notes: p-hydroxymandelate oxidase (Hmo, orf22) of Amycolatopsis orientalis in pET-28a(+), point mutant made by QuikChange on the wild-type hmo gene; Purified by the same protocol as wild-type Hmo; source: E. coli BL21(DE3), purified (Ni-NTA, size-exclusion chromatography)
Turning to B2, the “stoichiometry N” value in data set [9] was determined as 2.
